In patent US8318752B2, “4-(3-chloro-2-fluoroanilino)-7-methoxy-6-{[1-(N-methylcarbamoyl-methyl)piperidin-4-yl]oxy}quinazoline, its pharmaceutically acceptable salts, and pharmaceutical compositions comprising the same” (Astrazeneca AB, priority 2003, dated 2012) one finds IC50 data, which are given here for 3 compounds.

For orientation: IC50 means the concentration that gives 50% inhibition.

The subject of assay [1] is KB cells. As to the kind of experiment: EGFR driven KB cell proliferation assay, Test (b). The assay is classed as cell-based. The note with it: Homo sapiens, 96 h, EGF 1 ng/ml, 4 days, MTT. As for the experimental part: This assay measures the ability of a test compound to inhibit the proliferation of KB cells (human naso-pharangeal carcinoma obtained from the American Type Culture Collection (ATCC).
KB cells (human naso-pharangeal carcinoma obtained from the ATCC were cultured in Dulbecco's modified Eagle's medium (DMEM) containing 10% foetal calf serum, 2 mM glutamine and non-essential amino acids at 37° C. in a 7.5% CO2 air incubator. Cells were harvested from the stock flasks using Trypsin/ethylaminediaminetetraacetic acid (EDTA). Cell density was measured using a haemocytometer and viability was calculated using trypan blue solution before being seeded at a density of 1.25×10^3 cells per well of a 96 well plate in DMEM containing 2.5% charcoal stripped serum, 1 mM glutamine and non-essential amino acids at 37° C. in 7.5% CO2 and allowed to settle for 4 hours.
Following adhesion to the plate, the cells are treated with or without EGF (final concentration of 1 ng/ml) and with or without compound at a range of concentrations in dimethylsulfoxide (DMSO) (0.1% final) before incubation for 4 days. Following the incubation period, cell numbers were determined by addition of 50 μl of 3-(4,5-Dimethylthiazol-2-yl)-2,5-diphenyltetrazolium bromide (MTT) (stock 5 mg/ml) for 2 hours. […]
Absorbance of the solubilised cells was read at 540 nm using a Molecular Devices ThermoMax microplate reader. […]

Assay [2] concerns the target T1, EGFR tyrosine kinase (Homo sapiens, UniProt P00533).
T1 construct: Recombinant intracellular fragments of EGFR, erbB2 and erbB4; made in house; host or cells: baculovirus/Sf21
As to the kind of experiment: Protein tyrosine kinase phosphorylation assay, Test (a), EGFR. The note with it: recombinant intracellular fragment, ATP at Km; read-out: IC50 (μM) Test (a): Inhibition of EGFR tyrosine kinase protein phosphorylation. The assay is classed as biochemical. As for the experimental part: (§1) This test measures the ability of a test compound to inhibit the phosphorylation of a tyrosine containing polypeptide substrate by EGFR or ErbB2 tyrosine kinase enzyme.
(§2) Recombinant intracellular fragments of EGFR, erbB2 and erbB4 (accession numbers X00588, X03363 and L07868 respectively) were cloned and expressed in the baculovirus/Sf21 system. Lysates were prepared from these cells by treatment with ice-cold lysis buffer (20 mM N-2-hydroxyethylpiperizine-N′-2-ethanesulfonic acid (HEPES) pH7.5, 150 mM NaCl, 10% glycerol, 1% Triton X-100, 1.5 mM MgCl2, 1 mM ethylene glycol-bis(β-aminoethyl ether) N′,N′,N′,N′-tetraacetic acid (EGTA), plus protease inhibitors and then cleared by centrifugation.
(§3) Constitutive kinase activity of the recombinant protein was determined by its ability to phosphorylate a synthetic peptide (made up of a random co-polymer of Glutamic Acid, Alanine and Tyrosine in the ratio of 6:3:1). Specifically, Maxisorb™ 96-well immunoplates were coated with synthetic peptide (0.2 μg of peptide in a 100 μl phosphate buffered saline (PBS) solution and incubated at 4° C. overnight). Plates were washed in PBS-T (phosphate buffered saline with 0.5% Tween 20) then in 50 mM HEPES pH 7.4 at room temperature to remove any excess unbound synthetic peptide. […]
(§4) The immobilised phospho-peptide product of the reaction was detected by immunological methods. […] After further washing, HRP activity in each well of the plate was measured colorimetrically using 22′-Azino-di-[3-ethylbenzthiazoline sulfonate (6)] diammonium salt crystals (ABTS™ from Roche) as a substrate.
(§5) Quantification of colour development and thus enzyme activity was achieved by the measurement of absorbance at 405 nm on a Molecular Devices ThermoMax microplate reader. Kinase inhibition for a given compound was expressed as an IC50 value. […] The range of phosphorylation was calculated from the positive (vehicle plus ATP) and negative (vehicle minus ATP) control values.

For assay [3], the target named is T2, erbB2 tyrosine kinase (Homo sapiens, UniProt P04626).
T2 construct: Recombinant intracellular fragments of EGFR, erbB2 and erbB4; made in house; host or cells: baculovirus/Sf21
As to the kind of experiment: Protein tyrosine kinase phosphorylation assay, Test (a), erbB2. The note with it: recombinant intracellular fragment, ATP at Km; read-out: IC50 (μM) Test (a): Inhibition of erbB2 tyrosine kinase protein phosphorylation. The assay is classed as biochemical. As for the experimental part:
as §1, §2, §3, §4, §5

Assay [4] concerns the target T3, erbB2 (Homo sapiens, UniProt P04626).
T3 construct: overexpresses full length wild type erbB2 protein; expressed in transfected cells; host or cells: MCF7 (breast carcinoma) derived Clone 24 cells
As to the kind of experiment: Clone 24 phospho-erbB2 cell assay, Test (e). It counts as cell-based. The conditions noted are these: MCF7 derived Clone 24 cells overexpressing erbB2, 4 hrs; read-out: IC50 (μM) Test (e): Inhibition of erbB2 tyrosine kinase protein phosphorylation. As for the experimental part: This immunofluorescence end point assay measures the ability of a test compound to inhibit the phosphorylation of erbB2 in a MCF7 (breast carcinoma) derived cell line which was generated by transfecting MCF7 cells with the full length erbB2 gene using standard methods to give a cell line that overexpresses full length wild type erbB2 protein (hereinafter ‘Clone 24’ cells).
Clone 24 cells were cultured in Growth Medium (phenol red free Dulbecco's modified Eagle's medium (DMEM) containing 10% foetal bovine serum, 2 mM glutamine and 1.2 mg/ml G418) in a 7.5% CO2 air incubator at 37° C. Cells were harvested from T75 stock flasks by washing once in PBS (phosphate buffered saline, pH7.4, Gibco No. 10010-015) and harvested using 2 mls of Trypsin (1.25 mg/ml)/ethylaminediaminetetraacetic acid (EDTA) (0.8 mg/ml) solution. The cells were resuspended in Growth Medium. Cell density was measured using a haemocytometer and viability was calculated using Trypan Blue solution before being further diluted in Growth Medium and seeded at a density of 1×10^4 cells per well (in 100 ul) into clear bottomed 96 well plates (Packard, No. 6005182).
3 days later, Growth Medium was removed from the wells and replaced with 100 ul Assay Medium (phenol red free DMEM, 2 mM glutamine, 1.2 mg/ml G418) either with or without erbB inhibitor compound. Plates were returned to the incubator for 4 hrs and then 20 μl of 20% formaldehyde solution in PBS was added to each well and the plate was left at room temperature for 30 minutes. This fixative solution was removed with a multichannel pipette, 100 μl of PBS was added to each well and then removed with a multichannel pipette and then 50 μl PBS was added to each well. Plates were then sealed and stored for up to 2 weeks at 4° C.
Immunostaining was performed at room temperature. […]
The Fluorescence signal is each well was measured using an Acumen Explorer Instrument (Acumen Bioscience Ltd.), a plate reader that can be used to rapidly quantitate features of images generated by laser-scanning. […]

T3 sequence (P04626 23-1255): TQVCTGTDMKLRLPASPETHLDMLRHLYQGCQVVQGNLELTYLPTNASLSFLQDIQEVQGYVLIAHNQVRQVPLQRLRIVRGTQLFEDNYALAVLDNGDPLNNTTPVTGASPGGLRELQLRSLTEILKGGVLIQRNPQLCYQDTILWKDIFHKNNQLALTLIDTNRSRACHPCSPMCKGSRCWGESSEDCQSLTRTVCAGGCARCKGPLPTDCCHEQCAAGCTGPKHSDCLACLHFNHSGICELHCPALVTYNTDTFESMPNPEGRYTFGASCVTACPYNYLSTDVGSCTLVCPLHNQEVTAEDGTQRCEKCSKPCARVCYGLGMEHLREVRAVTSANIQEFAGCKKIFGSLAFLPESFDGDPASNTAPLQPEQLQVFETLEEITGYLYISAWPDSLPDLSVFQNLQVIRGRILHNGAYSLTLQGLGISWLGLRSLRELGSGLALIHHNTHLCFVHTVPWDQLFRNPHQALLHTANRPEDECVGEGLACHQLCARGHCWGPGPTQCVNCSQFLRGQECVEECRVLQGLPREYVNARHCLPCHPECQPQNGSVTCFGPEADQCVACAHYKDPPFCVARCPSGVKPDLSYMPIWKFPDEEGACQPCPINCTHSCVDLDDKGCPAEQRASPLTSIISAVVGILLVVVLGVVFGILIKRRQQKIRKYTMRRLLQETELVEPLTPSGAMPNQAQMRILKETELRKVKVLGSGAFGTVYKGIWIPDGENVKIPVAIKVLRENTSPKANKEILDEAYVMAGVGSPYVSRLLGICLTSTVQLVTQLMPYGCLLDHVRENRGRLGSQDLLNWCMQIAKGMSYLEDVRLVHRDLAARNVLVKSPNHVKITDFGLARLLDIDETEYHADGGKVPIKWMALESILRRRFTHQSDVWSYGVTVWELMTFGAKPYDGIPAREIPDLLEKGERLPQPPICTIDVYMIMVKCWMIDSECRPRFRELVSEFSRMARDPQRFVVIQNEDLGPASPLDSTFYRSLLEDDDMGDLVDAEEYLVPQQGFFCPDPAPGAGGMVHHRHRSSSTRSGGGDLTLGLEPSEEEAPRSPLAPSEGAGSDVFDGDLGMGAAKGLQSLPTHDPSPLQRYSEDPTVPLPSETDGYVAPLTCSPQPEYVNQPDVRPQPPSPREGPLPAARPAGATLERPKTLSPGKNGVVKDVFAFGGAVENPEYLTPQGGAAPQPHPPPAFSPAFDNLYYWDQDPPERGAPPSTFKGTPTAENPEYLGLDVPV
T1 sequence (P00533 669-1210 limits assumed): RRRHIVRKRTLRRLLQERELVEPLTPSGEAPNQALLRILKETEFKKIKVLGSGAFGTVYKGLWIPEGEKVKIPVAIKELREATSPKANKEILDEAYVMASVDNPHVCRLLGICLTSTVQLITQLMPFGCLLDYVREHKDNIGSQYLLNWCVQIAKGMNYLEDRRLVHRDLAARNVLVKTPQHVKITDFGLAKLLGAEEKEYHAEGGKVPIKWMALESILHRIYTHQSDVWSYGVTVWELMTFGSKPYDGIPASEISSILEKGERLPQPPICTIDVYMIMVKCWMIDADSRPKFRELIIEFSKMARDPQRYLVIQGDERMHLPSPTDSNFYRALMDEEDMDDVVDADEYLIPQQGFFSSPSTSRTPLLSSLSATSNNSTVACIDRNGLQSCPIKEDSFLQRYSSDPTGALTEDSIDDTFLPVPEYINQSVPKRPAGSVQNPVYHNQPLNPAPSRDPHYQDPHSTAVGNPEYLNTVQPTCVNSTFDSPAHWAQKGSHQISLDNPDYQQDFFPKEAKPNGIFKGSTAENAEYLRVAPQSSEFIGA
T2 sequence (P04626 676-1255 limits assumed): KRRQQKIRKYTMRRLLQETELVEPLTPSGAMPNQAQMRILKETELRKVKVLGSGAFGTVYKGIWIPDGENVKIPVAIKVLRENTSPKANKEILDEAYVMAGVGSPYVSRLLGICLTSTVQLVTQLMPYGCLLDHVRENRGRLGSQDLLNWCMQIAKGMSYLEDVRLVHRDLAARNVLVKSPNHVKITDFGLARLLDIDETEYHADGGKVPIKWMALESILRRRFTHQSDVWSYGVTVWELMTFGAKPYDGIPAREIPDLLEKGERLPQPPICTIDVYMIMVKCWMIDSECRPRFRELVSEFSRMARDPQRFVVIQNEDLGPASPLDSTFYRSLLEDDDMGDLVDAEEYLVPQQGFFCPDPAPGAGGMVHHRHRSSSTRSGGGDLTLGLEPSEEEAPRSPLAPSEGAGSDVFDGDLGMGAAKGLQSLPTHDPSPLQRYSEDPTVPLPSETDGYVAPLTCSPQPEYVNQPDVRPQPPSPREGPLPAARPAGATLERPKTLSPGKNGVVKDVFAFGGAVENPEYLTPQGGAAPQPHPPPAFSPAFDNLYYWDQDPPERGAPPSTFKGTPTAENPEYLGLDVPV

As to `COc1cc2ncnc(Nc3cccc(Cl)c3F)c2cc1OC1CCN(CC(=O)NCCN2CCCC2)CC1` [Example 7, 4-(3-chloro-2-fluoroanilino)-7-methoxy-6-{[1-(N-[2-(pyrrolidin-1-yl)ethyl]carbamoylmethyl)piperidin-4-yl]oxy}quinazoline], the IC50 stood at 0.017 µM in assay [1], 0.003 µM in assay [2], 0.013 µM in assay [3] and 0.014 µM in assay [4].

As to `CNC(=O)CN1CCC(Oc2cc3c(Nc4ccc(F)c(Cl)c4F)ncnc3cc2OC)CC1` [Example 5, 4-(3-chloro-2,4-difluoroanilino)-7-methoxy-6-{[1-(N-methycarbamoylmethyl)piperidin-4-yl]oxy}quinazoline], the IC50 in assay [1] was 0.009 µM; in assay [2], 0.004 µM; in assay [3], 0.047 µM; in assay [4], 0.006 µM.

With `COc1cc2ncnc(Nc3cccc(Cl)c3F)c2cc1OC1CCN(CC(=O)N2CCN(C)CC2)CC1` [Example 10, 4-(3-chloro-2-fluoroanilino)-7-methoxy-6-({1-[2-(4-methylpiperazin-1-yl)-2-oxoethyl]piperidin-4-yl}oxy)quinazoline], the results for the IC50 in assay [2], in assay [3] and in assay [4] were 0.004 µM, 0.01 µM and 0.013 µM, respectively.
